Results from a melting point compilation (Tetko et al.).

| SMILES | melting point |
| --- | --- |
| O=C(O)c1cc(Br)cnc1Br | 184 to 185 °C |
| COc1cc(I)c(OC)cc1I | 171 to 173 °C |
| CCCCOc1ccc(-c2nn(CCC#N)c(=S)[nH]2)cc1 | 115 °C |
| CCC(=O)c1cc(F)cc(F)c1 | 26 °C |
| CC12CCC(O)CC1=CCC1C2CCC2(C)C1CCC2(O)C#Cc1ccccc1 (configuration not stated) | 162 to 165 °C |
| NC(=S)c1ccsc1 | 96 to 98 °C |
| O=C(O)c1cn2ccsc2n1 | 233 to 234 °C |
| COc1cccc(N2C(=O)C=CC2=O)c1 | 62 to 66 °C |
| O=[N+]([O-])c1cncn1CCN1CCOCC1 | 110 °C |
| OCC1(CO)CC=CCC1 | 88.5 °C |
| CC(=O)C(Cc1ccccc1)C(=O)OC1CC(C)CCC1C(C)C (configuration not stated) | 68 °C |
| CCn1cc(C(=O)O)c(=O)c2cc(F)c(N3CCNCC3)cc21 | 228 °C |
| CC(NC(C)(C)C)C(=O)c1cccc(Cl)c1 (configuration not stated) | 234 °C |
| O=C(O)c1ccnc(N2CCCCC2)c1 | 167 to 168 °C |
| CCOC(=O)c1c(-c2ccc(-c3ccccc3)cc2)csc1N | 155 to 157 °C |
| CSc1nc2ccc([N+](=O)[O-])cc2s1 | 134 to 136 °C |
| CCCCC(CC)CO (configuration not stated) | -70 °C |
| O=C(O)c1cnn(-c2ccc(Cl)cc2)c1C(F)(F)F | 137 to 138 °C |
| Brc1c(Br)c(Br)c(Oc2ccccc2)c(Br)c1Br | 200 °C |
| COC1(OC)C2C=CC(C)(O2)C1C(=O)O (configuration not stated) | 176 to 178 °C |
| N#C/C(=C/c1cccnc1)c1nc(-c2ccccc2)cs1 | 164 °C |
| O=C(NCN1CCOCC1)c1cnccn1 | 118 °C |
| O=[N+]([O-])c1ccc(F)cc1Cl | 35 °C |
| CSC(SC)=C(C#N)C(=O)c1cccc(C(F)(F)F)c1 | 60 °C |
| Cc1cccc(C)c1NC(N)=S | 195 °C |
| CC1(C)c2ccccc2Oc2ccccc21 | 41.5 °C |

| SMILES | melting point |
| --- | --- |
| Cc1cc(N)ccc1F | 35 to 37 °C |
| CCOC(=O)ON=C(C(=O)c1ccccc1)c1ccccc1 | 73 to 75 °C |
| Cc1[nH]c2ccccc2c1C=O | 204 to 205 °C |
| C=CC[C@H](N)C(=O)O | 253 to 255 °C |
| O=C(O)C(Cc1cc(I)c(O)c(I)c1)c1ccccc1 (configuration not stated) | 164 °C |
| C=COCC(CC)CCCC (configuration not stated) | -100 °C |
| Nc1cccc(CN2CCCCC2)c1 | 106 to 109 °C |
| CC(=O)N1CC(c2ccccc2)C=C1c1ccccc1 (configuration not stated) | 105 °C |
| CC(=O)/C=C1\NC(=O)c2ccccc21 | 108 °C |
| O=C1c2c(Br)c(Br)c(Br)c(Br)c2C(=O)N1CCN1C(=O)c2c(Br)c(Br)c(Br)c(Br)c2C1=O | 445 °C |
| CC(C)c1cccc(C(C)C)c1N | -45 °C |
| Cc1cc(Cl)cc(Cl)c1Cl | 45.5 °C |
| FCC(F)(F)F | -101 °C |
| CCOC(=O)c1nn(-c2ccc(C)cc2)c(=N)c(C#N)c1C | 150 °C |
| CC(C)OC(=O)C(C)(C)Oc1ccc(C(=O)c2ccc(Cl)cc2)cc1 | 80.5 °C |
| CC(=O)c1ccc(C=O)cc1 | 33 °C |
| CN(C)c1ccc(/C=C/C(=O)CCc2ccccc2)cc1 | 93 °C |
| CCC(C)CC | -118 °C |
| O=C1C=C2C(=CCOC2O)O1 (configuration not stated) | 111 °C |
| Cc1ccc(S(=O)(=O)N2C/C(=C\c3cccc(Cl)c3)N(S(=O)(=O)c3ccc(C)cc3)c3ccccc32)cc1 | 145 °C |
| Cc1cc(Br)cc(Br)c1O | 58 °C |
| COC(C(=O)O)c1ccccc1 (racemic) | 68 to 72 °C |
| CC12CCC3C(C(=O)CC4CC(=O)CCC43C)C1CCC2=O (configuration not stated) | 229 to 234 °C |
| N#Cc1ccc(C=Cc2ccccc2C=O)c([N+](=O)[O-])c1 | 210 °C |
| CC(Oc1cc(Cl)c(Cl)cc1Cl)C(=O)O (configuration not stated) | 182 °C |
| O=C(O)c1ccccc1N/N=C1/C(=O)N(c2ccccc2)N=C1C(F)(F)F | 139 °C |

| SMILES | melting point |
| --- | --- |
| CCCCCC(C=O)=Cc1ccccc1 | 80 °C |
| CN(C)CCC=C1c2ccccc2Sc2ccc(Cl)cc21 | 97.5 °C |
| CC(C)(C)S(=O)(=O)c1cnc(-c2ccccn2)nc1N | 266 to 268 °C |
| CC(=O)OC1C2=C(C(=O)C(OC(C)=O)C3(CC3C)C2=O)C2(C)CCCC(C)(C)C2C1O (configuration not stated) | 172 to 173 °C |
| Oc1cccc2c1CCCC2O (configuration not stated) | 132 to 134 °C |
| Cc1cc(Oc2ccc(C(N)=NO)cc2[N+](=O)[O-])cc(C)c1Cl | 183 to 185 °C |
| O=C1C(Cl)=C(NC(=O)C(Cl)Cl)C(=O)c2ccccc21 | 212 °C |
| O=C(O)CCCNC(=O)CCCCC(=O)NCCCC(=O)O | 145 °C |
| COc1ccc(-n2ncc(C=O)c2C)cc1 | 80 to 82 °C |
| CC12CCC(O)(CC1)CC2=O | 55 to 56 °C |
| CCOc1ccc(CC#N)cc1 | 44 to 47 °C |
| CCOCC1C(=O)C2(C)CCC1C2(C)C (configuration not stated) | 114 °C |
| O=c1[nH][nH]c(=O)c2cc3c(cc12)CCC3 | 310 °C |
| Cc1cccc2c1C(=O)OC2=O | 116 °C |
| N=C(N)c1ccc(Oc2ccc(C(=N)N)cc2)cc1 | 216 °C |
| CC1=NN(c2ccccc2)C(=O)C1Cc1ccccc1O (configuration not stated) | 140 °C |
| CC1=C(C(=O)OC(C)C)C(c2ccc([N+](=O)[O-])cc2)NC(=S)N1 (configuration not stated) | 75 °C |
| Cc1ccc2c(c1)C1C(C3C2C2(Cl)C(Cl)=C(Cl)C3(Cl)C2(Cl)Cl)C2(Cl)C(Cl)=C(Cl)C1(Cl)C2(Cl)Cl (configuration not stated) | 160 to 165 °C |
| C#CC1(O)C=CC2C3CCC4=CC(=O)CCC4C3CCC21CC (configuration not stated) | 198 °C |
| O=C(O)C12CC3CC(CC(O)(C3)C1)C2 | 205 °C |
| O=C(OCCc1ccc(CCOC(=O)c2ccccc2)cc1)c1ccccc1 | 137 °C |
| C=COCCCCCCCCCCCCCCCCCC | 30 °C |
| O=c1c2ccccc2[nH]c(=S)n1Cc1ccccc1 | 256 to 257 °C |
| Clc1ncccc1-c1ccc(Br)cn1 | 132 °C |
| CC1=CC(=O)CCC1 | -21 °C |
| C(=C\P(c1ccccc1)c1ccccc1)/P(c1ccccc1)c1ccccc1 | 123 to 128 °C |

| SMILES | melting point |
| --- | --- |
| CC1CC(=O)c2c(F)c(F)cc3c(=O)c(C(=O)O)cn1c23 (configuration not stated) | 323 to 325 °C |
| c1ccc2c(c1)OCCOCCOCCOCCOc1ccccc1OCCOCCO2 | 59 to 63 °C |
| O=[N+]([O-])Nc1ccccc1 | 47.3 °C |
| CNCCC(Oc1ccc(C(F)(F)F)cc1)c1ccccc1 (configuration not stated) | 180 °C |
| Cc1cc(C)c(CC(=O)c2cc3ccccc3o2)c(C)c1 | 172 to 173 °C |
| Fc1cccc(F)c1 | -59 °C |
| CC(C)(C)OC(=O)N[C@H](Cc1ccc(C#N)cc1)C(=O)O | 153 °C |
| CCc1cc2ccccc2c2ccccc12 | 62.5 °C |
| FC(F)(F)C(Cl)=C(Cl)C(F)(F)F | -67.3 °C |
| O=C(O)C1CSC(c2ccccc2)N1 (mixture of isomers) | 158 to 162 °C |
| N#Cc1ccccc1C#N | 140 °C |
| NS(=O)(=O)c1ccc(SCCCCCO)cc1 | 103 °C |
| ON=C(Cc1ccccc1)C(Cc1ccccc1)=NO | 193 °C |
| CC(O)C(C)C(C)(C)C (configuration not stated) | 27 °C |
| O=Cc1cccc2c(Br)cccc12 | 105 °C |
| COc1ccc(Nc2cccc(C(F)(F)F)c2)cc1 | 58 °C |
| Nc1cc(F)ccc1F | 14 °C |
| CCC(C)C(N)P(=O)(O)O (configuration not stated) | 274 °C |
| OCCC(F)(F)C(F)(F)C(F)(F)C(F)(F)C(F)(F)C(F)(F)C(F)(F)C(F)(F)C(F)(F)C(F)(F)F | 92.7 °C |
| Nc1c(Oc2ccccc2)c(Oc2ccccc2)c(N)c2c1C(=O)c1ccccc1C2=O | 195 °C |
| Cc1c(C(=O)O)cnn1-c1ccc(F)cc1 | 165 to 166 °C |
| CC(=O)Oc1cn(C(C)=O)c2ccc(Br)c(Cl)c12 | 166 °C |
| CC1OC(C)OC(C)OC(C)O1 (configuration not stated) | 246 °C |
| C1CCCSCC1 | 0.5 °C |
| COc1ccc2c(OC)cccc2c1 | 58.5 °C |
| O=c1nc2ccccc2nc(C(F)(F)F)c1NNc1cccnc1 | 157 °C |

| SMILES | melting point |
| --- | --- |
| O=C1Cc2cccc(Cl)c21 | 71 °C |
| CC(CCC(=O)O)C1CCC2C3C(=O)CC4CC5(CCC4(C)C3CC(=O)C12C)OCCO5 (configuration not stated) | 222 °C |
| O=C(Nc1cccc2c1c(S(=O)(=O)O)cc1oc(-c3ccccc3)nc12)c1ccccc1 | 276 °C |
| Cc1ccccc1OC(=O)Oc1ccccc1C | 60 °C |
| COc1c(OC)c(OC(C)=O)c2cc(F)ccc2c1OC(C)=O | 102 °C |
| CCC(C)C(=O)NC1CCC(=O)N(CCc2ccccc2)C1=O (configuration not stated) | 108 °C |
| O=C(Cc1ccccc1)OCc1ccccc1[N+](=O)[O-] | 54 °C |
| CCCCCCCCCCCCC(Oc1ccc([N+](=O)[O-])cc1)C(=O)NN (configuration not stated) | 127 °C |
| CCOC(=O)C1=C(C)N(C)C(=S)NC1c1ccccc1 (configuration not stated) | 147 °C |
| CCCCc1nc(CO)c[nH]1 | 94 to 97 °C |
| CC(C)NCC(O)c1ccc(O)c(O)c1 (configuration not stated) | 170 °C |
| Cc1cc(C)n2nc(SCc3ccccc3)nc2n1 | 135 to 136 °C |
| O=[N+]([O-])c1ccc(-c2nnc3n2NC(c2ccc(Cl)cc2)S3)cc1 (configuration not stated) | 220 °C |
| O=C1NC(=O)C2(CCCCC2)N1 | 218 to 220 °C |
| Nc1ccccc1-n1cccc1 | 94 to 98 °C |
| CCOC(=O)c1sc(N)nc1C(F)(F)F | 186 °C |
| Cc1cc(C)n2nc(N)c(/N=N/c3cc(Cl)c(Cl)cc3Cl)c2n1 | 295 °C |
| O=C(O)c1c(F)c(F)c(F)c(F)c1C(=O)O | 163 °C |
| Cc1nc([N+](=O)[O-])cn1-c1ccc([N+](=O)[O-])cc1 | 186 °C |
| CCCCCC(C)(C)C | -113 °C |
| O=Cc1ccc(N2CCCC2=O)cc1 | 121 to 122 °C |
| Cc1ccc(C(c2ccc(C)o2)c2cc([N+](=O)[O-])cc(Br)c2O)o1 | 153 °C |
| CC(=O)Oc1ccccc1C(=O)Cl | 49 °C |
